{
  "source": "patent US20030129629A1",
  "about": "“Methods and compositions for the identification, assessment, prevention, and therapy of human cancers” (Millennium Pharmaceuticals, Inc., priority 2000, published 2003)",
  "test_system": "60 cancer cell lines (NCI 60 cancer cell line series)",
  "assay": "NCI-DTP in vitro cancer screen, sulforhodamine B (SRB) growth inhibition, 48 hour exposure",
  "type": "cell-based, human",
  "protocol": "Cancer Cell Line Preparation. Sixty cancer cell lines were obtained from the National Cancer Institute Developmental Therapeutics Program (NCI-DTP). Procedures for growing cells and testing compounds have been described previously (Scudiero et al., Cancer Res. 1988, 48:4827-4833; Stinson et al., Anticancer Res.; Myers et al., Electrophoresis 1997, 18:647-653). Cells are plated on day 0 at a density individualized for each cell line so that they will generally be sub-confluent at the end of the assay period. On day 1, a compound is added in the format for a duplicate-well, 5-dose, ten-fold interval dose response study.\nNo-drug, no-cell and no-growth controls are included. On day 3 the cells are processed for staining with sulforhodamine B (SRB), which reflects the amount of cell mass present at the end of a 48 hour exposure to the test agent. From dose response curves based on the SRB data, various parameters can be determined. […] More precisely, the quantity used in the calculation to be described is the potency measure −log{GI50}.\nActivity database (A). […] This subset of compounds was selected from the larger 23,000 compound database available from the DTP. The compounds were selected on the basis of their known mechanism of action and chemical structure. The average potency −log{GI50} was extracted from the comma-delimited text files available through the Web at http://www.nci.nih.gov/intra/lmp/jnwbio.html. Subsequently, these −log{GI50} values were inspected manually and classified as indicating either Low, Medium or High sensitivity to each compound.",
  "note": "Several values for one entry are separate records, joined by “and”; a condition that tells them apart may be missing. Equal values may be shown once. Read-outs that look alike come from different tables or passages of the source.",
  "data": [
    {"smiles": "O=NN(CCCl)C(=O)NCCCl", "note": "[BCNU]", "values": [
      {"measurement": "sensitivity classification Low(1)/Medium(2)/High(3)", "value": "2 and 1 and 3"}
    ]},
    {"smiles": "CS(=O)(=O)OCCCCOS(C)(=O)=O", "note": "[Busulfan]", "values": [
      {"measurement": "classification of cell line as Low(1), Medium(2), High(3) sensitivity to compound", "setting": "Breast BT-549 CL5013", "value": 1},
      {"measurement": "classification of cell line as Low(1), Medium(2), High(3) sensitivity to compound", "setting": "Breast HS-578T CL5006", "value": 1},
      {"measurement": "classification of cell line as Low(1), Medium(2), High(3) sensitivity to compound", "setting": "Breast MCF7(I) CL5001", "value": 2},
      {"measurement": "classification of cell line as Low(1), Medium(2), High(3) sensitivity to compound", "setting": "Breast MCF7/ADRr CL5002", "value": 2},
      {"measurement": "classification of cell line as Low(1), Medium(2), High(3) sensitivity to compound", "setting": "Breast MDA-MB-231 CL5005", "value": 1},
      {"measurement": "classification of cell line as Low(1), Medium(2), High(3) sensitivity to compound", "setting": "Breast MDA-MB-435 CL5011", "value": 1},
      {"measurement": "classification of cell line as Low(1), Medium(2), High(3) sensitivity to compound", "setting": "Breast MDA-N CL5012", "value": 2},
      {"measurement": "classification of cell line as Low(1), Medium(2), High(3) sensitivity to compound", "setting": "Breast T-47D CL5014", "value": 1},
      {"measurement": "classification of cell line as Low(1), Medium(2), High(3) sensitivity to compound", "setting": "CNS SF-268 CL12014", "value": 2},
      {"measurement": "classification of cell line as Low(1), Medium(2), High(3) sensitivity to compound", "setting": "CNS SF-295 CL12015", "value": 2},
      {"measurement": "classification of cell line as Low(1), Medium(2), High(3) sensitivity to compound", "setting": "CNS SF-539 CL12016", "value": 1},
      {"measurement": "classification of cell line as Low(1), Medium(2), High(3) sensitivity to compound", "setting": "CNS SNB-19 CL12002", "value": 2},
      {"measurement": "classification of cell line as Low(1), Medium(2), High(3) sensitivity to compound", "setting": "CNS SNB-75(I) CL12005", "value": 3},
      {"measurement": "classification of cell line as Low(1), Medium(2), High(3) sensitivity to compound", "setting": "CNS U251(I) CL12009", "value": 1},
      {"measurement": "classification of cell line as Low(1), Medium(2), High(3) sensitivity to compound", "setting": "Colon COLO-250 CL4010", "value": 2},
      {"measurement": "classification of cell line as Low(1), Medium(2), High(3) sensitivity to compound", "setting": "Colon HCC-2998 CL4002", "value": 2},
      {"measurement": "classification of cell line as Low(1), Medium(2), High(3) sensitivity to compound", "setting": "Colon HCT-15 CL4015", "value": 2},
      {"measurement": "classification of cell line as Low(1), Medium(2), High(3) sensitivity to compound", "setting": "Colon HCT-116 CL4003", "value": 1},
      {"measurement": "classification of cell line as Low(1), Medium(2), High(3) sensitivity to compound", "setting": "Colon HT29(I) CL4001", "value": 1},
      {"measurement": "classification of cell line as Low(1), Medium(2), High(3) sensitivity to compound", "setting": "Colon KM12 CL4017", "value": 1},
      {"measurement": "classification of cell line as Low(1), Medium(2), High(3) sensitivity to compound", "setting": "Colon SW-620 CL4009", "value": 2},
      {"measurement": "classification of cell line as Low(1), Medium(2), High(3) sensitivity to compound", "setting": "Leukemia CCRF-CEM(I) CL7003", "value": 3},
      {"measurement": "classification of cell line as Low(1), Medium(2), High(3) sensitivity to compound", "setting": "Leukemia HL-60(I) CL7008", "value": 3},
      {"measurement": "classification of cell line as Low(1), Medium(2), High(3) sensitivity to compound", "setting": "Leukemia K562(I) CL7005", "value": 2},
      {"measurement": "classification of cell line as Low(1), Medium(2), High(3) sensitivity to compound", "setting": "Leukemia MOLT-4 CL7006", "value": 3},
      {"measurement": "classification of cell line as Low(1), Medium(2), High(3) sensitivity to compound", "setting": "Leukemia RPMI-8226(I) CL7010", "value": 1},
      {"measurement": "classification of cell line as Low(1), Medium(2), High(3) sensitivity to compound", "setting": "Leukemia SR CL7019", "value": 3},
      {"measurement": "classification of cell line as Low(1), Medium(2), High(3) sensitivity to compound", "setting": "Melanoma LOX IMVI CL10001", "value": 2},
      {"measurement": "classification of cell line as Low(1), Medium(2), High(3) sensitivity to compound", "setting": "Melanoma M14 CL10014", "value": 1},
      {"measurement": "classification of cell line as Low(1), Medium(2), High(3) sensitivity to compound", "setting": "Melanoma MALME-3M CL10002", "value": 1},
      {"measurement": "classification of cell line as Low(1), Medium(2), High(3) sensitivity to compound", "setting": "Melanoma SK-MEL-2 CL10005", "value": 1},
      {"measurement": "classification of cell line as Low(1), Medium(2), High(3) sensitivity to compound", "setting": "Melanoma SK-MEL-5 CL10007", "value": 2},
      {"measurement": "classification of cell line as Low(1), Medium(2), High(3) sensitivity to compound", "setting": "Melanoma SK-MEL-28 CL10008", "value": 2},
      {"measurement": "classification of cell line as Low(1), Medium(2), High(3) sensitivity to compound", "setting": "Melanoma UACC-62 CL10020", "value": 2},
      {"measurement": "classification of cell line as Low(1), Medium(2), High(3) sensitivity to compound", "setting": "Melanoma UACC-257 CL10021", "value": 2},
      {"measurement": "classification of cell line as Low(1), Medium(2), High(3) sensitivity to compound", "setting": "NSCLC A549/ATCC CL1004", "value": 2},
      {"measurement": "classification of cell line as Low(1), Medium(2), High(3) sensitivity to compound", "setting": "NSCLC EKVX CL1008", "value": 2},
      {"measurement": "classification of cell line as Low(1), Medium(2), High(3) sensitivity to compound", "setting": "NSCLC HOP-62 CL1026", "value": 2},
      {"measurement": "classification of cell line as Low(1), Medium(2), High(3) sensitivity to compound", "setting": "NSCLC HOP-92 CL1029", "value": 2},
      {"measurement": "sensitivity classification Low(1)/Medium(2)/High(3)", "setting": "NSCLC NCI-H23(I) CL1001", "value": 2},
      {"measurement": "classification of cell line as Low(1), Medium(2), High(3) sensitivity to compound", "setting": "NSCLC NCI-H226 CL1013", "value": 2},
      {"measurement": "sensitivity classification Low(1)/Medium(2)/High(3)", "setting": "NSCLC NCI-H332M CL1017", "value": 1},
      {"measurement": "sensitivity classification Low(1)/Medium(2)/High(3)", "setting": "NSCLC NCI-H460 CL1021", "value": 3},
      {"measurement": "sensitivity classification Low(1)/Medium(2)/High(3)", "setting": "NSCLC NCI-H522 CL1003", "value": 1},
      {"measurement": "sensitivity classification Low(1)/Medium(2)/High(3)", "setting": "Ovarian IGROV1 CL6010", "value": 1},
      {"measurement": "sensitivity classification Low(1)/Medium(2)/High(3)", "setting": "Ovarian OVCAR-3 CL6001", "value": 2},
      {"measurement": "sensitivity classification Low(1)/Medium(2)/High(3)", "setting": "Ovarian OVCAR-4 CL6002", "value": 2},
      {"measurement": "sensitivity classification Low(1)/Medium(2)/High(3)", "setting": "Ovarian OVCAR-5 CL6003", "value": 1},
      {"measurement": "sensitivity classification Low(1)/Medium(2)/High(3)", "setting": "Ovarian OVCAR-8 CL6005", "value": 1},
      {"measurement": "sensitivity classification Low(1)/Medium(2)/High(3)", "setting": "Ovarian SK-OV-3 CL6011", "value": 1},
      {"measurement": "sensitivity classification Low(1)/Medium(2)/High(3)", "setting": "Prostate DU-145 CL11003", "value": 2},
      {"measurement": "sensitivity classification Low(1)/Medium(2)/High(3)", "setting": "Prostate PC-3(I) CL11001", "value": 1},
      {"measurement": "sensitivity classification Low(1)/Medium(2)/High(3)", "setting": "Renal 786-0 CL9018", "value": 2},
      {"measurement": "sensitivity classification Low(1)/Medium(2)/High(3)", "setting": "Renal A498 CL9013", "value": 1},
      {"measurement": "sensitivity classification Low(1)/Medium(2)/High(3)", "setting": "Renal ACHN CL9023", "value": 2},
      {"measurement": "sensitivity classification Low(1)/Medium(2)/High(3)", "setting": "Renal CAKI-1 CL9015", "value": 3},
      {"measurement": "sensitivity classification Low(1)/Medium(2)/High(3)", "setting": "Renal RXF-393 CL9016", "value": 3},
      {"measurement": "sensitivity classification Low(1)/Medium(2)/High(3)", "setting": "Renal SN12C CL9008", "value": 2},
      {"measurement": "sensitivity classification Low(1)/Medium(2)/High(3)", "setting": "Renal TK10 CL9024", "value": 1},
      {"measurement": "sensitivity classification Low(1)/Medium(2)/High(3)", "setting": "Renal UO-31 CL9004", "value": 1}
    ]}
  ]
}
